Assay [1] addresses T1, Human immunodeficiency virus type 1 reverse transcriptase (Human immunodeficiency virus 1, UniProt Q72547).
Assay [2] deals with Human immunodeficiency virus type 1 reverse transcriptase (Human immunodeficiency virus 1) (UniProt Q72547). Description: Inhibition of HIV1 RT at 200 ug/ml.
For assay [3], the target named is T1, Human immunodeficiency virus type 1 reverse transcriptase. The experiment in a line: Inhibition of HIV1 RT using poly A oligo(dT) template primer.

Structures can show the parent of a compound that is named as a salt. A value given as a limit tells only on which side of the number the result lay.

From ChEMBL document CHEMBL1137798, “Evaluation of natural products as inhibitors of human immunodeficiency virus type 1 (HIV-1) reverse transcriptase” (J Nat Prod, 1991) come the findings set out here.

By IC50 is commonly meant the point on the concentration scale where inhibition reaches its midpoint. A word on the inhibition: it is the drop in the measured response relative to a control, in per cent. A low value points to a response near the control.

Regarding `COc1cc2c(ccc3c4cc(OC)c(OC)cc4cnc23)cc1O`, the IC50 in assay [1] (read-out: IC50 (converted)) is more than 596 µM. Moreover, the inhibition in assay [2] is less than 10%.
Regarding `CC[C@H]1CN2CCc3cc(OC)c(OC)cc3[C@@H]2C[C@@H]1C[C@H]1NCCc2cc(O)c(OC)cc21` [CEPHAELINE DIHYDROCHLORIDE], the IC50 in assay [1] (read-out: IC50 (converted)) was more than 371 µM. Further, the inhibition in assay [2] was determined as 20%.
As to `C/C=C1/C[N+]2(C)CC[C@@]34c5ccccc5N[C@]32CCC1C4(CO)C(=O)OC` (some centres not stated) [ECHITAMINE CHLORIDE], in assay [1] (read-out: IC50 (converted)), the IC50 is more than 494 µM. In assay [2], this compound gave an inhibition of less than 10%.
In the case of `COc1cc2c(ccc3c4cc(OC)c(OC)cc4c[n+](C)c23)cc1O` [FAGARONINE], the values for the IC50 in assay [1] (read-out: IC50 (converted)) and in assay [3] were 46.7 µM and 25.9 µM, respectively.
For `COc1ccc2c(c1O)-c1c(O)c(OC)cc3c1[C@H](C2)[N+](C)(C)CC3` [MAGNOFLORINE CHLORIDE], the concentration for half-maximal inhibition (IC50) in assay [1] (read-out: IC50 (converted)) was more than 529 µM. Besides, the inhibition in assay [2] is less than 10%.
As to `COc1cc2c[n+](C)c3c4cc5c(cc4ccc3c2cc1OC)OCO5` [NITIDINE CHLORIDE], the IC50 was less than 130 µM in assay [1] (read-out: IC50 (converted)) and 128 µM in assay [3].
On to `CC[C@H]1CN2CCc3cc(OC)c(OC)cc3[C@@H]2C[C@@H]1CC1=NCCc2cc(O)c(OC)cc21` [PSYCHOTRINE], for which, in assay [1] (read-out: IC50 (converted)), the IC50 was more than 430 µM. Further, the inhibition in assay [2] is 20%.
On to `COC(=O)C1=CO[C@@H](C)[C@@H]2CN3CCc4c([nH]c5ccccc45)[C@@H]3C[C@H]12` [TETRAHYDROALSTONINE], for which, in assay [1] (read-out: IC50 (converted)), the IC50 is more than 567 µM.
On to `COc1ccc2c(c1OC)CN1CCc3cc4c(cc3C1C2)OCO4` (configuration not stated) [TETRAHYDROBERBERINE], for which the IC50 in assay [1] (read-out: IC50 (converted)) was more than 589 µM. In addition, in assay [2], the inhibition was found to be 25%.
On to `COc1cc2c(cc1OC)[C@@H]1Cc3ccc(OC)c(OC)c3CN1CC2` [TETRAHYDROPALMATINE], for which the IC50 in assay [1] (read-out: IC50 (converted)) is more than 563 µM.
With `COc1cc2c(cc1OC)[C@@H]1Cc3ccc(OC)c(O)c3CN1CC2` [TETRAHYDROPALMATRUBINE], the IC50 in assay [1] (read-out: IC50 (converted)) was more than 586 µM. Also, in assay [2], the inhibition is 25%.
For `COc1cc(C[C@H]2c3cc(OC)c(OC)cc3CCN2C)c(Oc2cc3c(cc2OC)-c2c(OC)c(OC)cc4c2[C@H](C3)N(C)CC4)cc1OC` [THALICARPINE], in assay [1] (read-out: IC50 (converted)), the IC50 was more than 287 µM.
`C=C(C)C(O)C(O)c1cc2ccc(=O)oc2cc1OC` (configuration not stated) [THAMNOSMONIN]: the half-inhibitory concentration (IC50) in assay [1] (read-out: IC50 (converted)) is more than 724 µM.
The same measure, in the same setting: as for `COc1cc2c(c3c1c(=S)c1ccccc1n3C)C=CC(C)(C)O2` [THIOACRONYCINE], the figure is more than 593 µM.
`O=C(/C=C/c1ccc(O)cc1)OC[C@H]1O[C@@H](Oc2c(-c3ccc(O)cc3)oc3cc(O)cc(O)c3c2=O)[C@H](O)[C@@H](O)[C@@H]1O` [TILIROSIDE]: in assay [1] (read-out: IC50 (converted)), the IC50 is less than 336 µM.
Turning to `CC1=C(O)C(=O)C=C2C1=CC=C1[C@@]2(C)CC[C@@]2(C)[C@@H]3C[C@@H](C)C(=O)[C@@H](O)[C@]3(C)CC[C@]12C` [TINGENIN B], the IC50 in assay [1] (read-out: IC50 (converted)) was more than 458 µM.
In the case of `C[C@H]1CC[C@]2(NC1)O[C@H]1C[C@H]3[C@@H]4CC[C@H]5C[C@@H](O[C@@H]6O[C@H](CO)[C@H](O[C@@H]7O[C@H](CO)[C@@H](O)[C@H](O[C@@H]8OC[C@@H](O)[C@H](O)[C@H]8O)[C@H]7O[C@@H]7O[C@H](CO)[C@@H](O)[C@H](O)[C@H]7O)[C@H](O)[C@H]6O)CC[C@]5(C)[C@H]4CC[C@]3(C)[C@H]1[C@@H]2C` [TOMATINE], in assay [1] (read-out: IC50 (converted)), the IC50 is more than 193 µM.
On the same count and under the same terms, then `O[C@H]1[C@H]2[C@H](O)CCCN2C[C@H]1O` [TRIDOLGOSIR], with more than 1150 µM; and `C[n+]1cccc(C(=O)[O-])c1` [TRIGONELLINE HYDROCHLORIDE], with more than 1150 µM.
On the same count and under the same terms, as for `CC[C@H]1CN2CCc3cc(OC)c(OC)cc3[C@@H]2C[C@@H]1C[C@H]1NCCc2c1[nH]c1ccc(O)cc21` [TUBULOSINE], the figure is more than 420 µM; as for `COc1cc(O)c2c(=O)cc(-c3ccc(O)c(OC)c3)oc2c1` [VELUTIN], more than 636 µM; as for `C/C=C(/C)C(=O)O[C@H]1CC[C@@]2(C)[C@@H]3CC[C@H]4[C@]5(O)C[C@H](O)[C@@]6(O)[C@@H](CN7C[C@@H](C)CC[C@H]7[C@@]6(C)O)[C@]5(O)C[C@]42O[C@]13O` [VERATRINE], more than 338 µM.
On the same count and under the same terms, then `CC[C@]1(O)C[C@@H]2CN(CCc3c([nH]c4ccccc34)[C@@](C(=O)OC)(c3cc4c(cc3OC)N(C)[C@H]3[C@@](O)(C(=O)OC)[C@H](OC(C)=O)[C@]5(CC)C=CCN6CC[C@]43[C@@H]65)C2)C1` [VINBLASTINE], with more than 247 µM.
As for `C/C=C1\CN2[C@H]3C[C@@]45c6ccccc6N(C)[C@@H]4[C@@H]2C[C@@H]1[C@@]3(C(=O)OC)C5O` (some centres not stated) [VINCAMAJINE], the IC50 in assay [1] (read-out: IC50 (converted)) is more than 546 µM.
Regarding `CC[C@]1(O)C[C@H]2CN(CCc3c([nH]c4ccccc34)[C@@](C(=O)OC)(c3cc4c(cc3OC)N(C=O)[C@H]3[C@@](O)(C(=O)OC)[C@H](OC(C)=O)[C@]5(CC)C=CCN6CC[C@]43[C@@H]65)C2)C1` [VINCRISTINE], the IC50 in assay [1] (read-out: IC50 (converted)) was more than 242 µM.
On the same count and under the same terms, as for `CC[C@]12CN3CCc4c([nH]c5ccccc45)[C@@](C(=O)OC)(c4cc5c(cc4OC)N(C)[C@H]4[C@@](O)(C(=O)OC)[C@H](OC(C)=O)[C@]6(CC)C=CCN7CC[C@]54[C@@H]76)C[C@@H](C3)[C@H]1O2` [VINLEUROSINE SULFATE], the figure is more than 233 µM; as for `CC1(C)CC[C@]2(C)CC[C@]3(C)C(=CC[C@@H]4[C@@]5(C)CC[C@H](O)C(C)(C)[C@@H]5CC[C@]43C)[C@@H]2C1` [beta-AMYRIN], more than 469 µM.
RAUWOLFIA SERPENTINA: the IC50 in assay [1] is more than 200 µg/mL.
